24 compounds from patent publication US7943749B2, “Antimicrobial 2-deoxystreptamine compounds” (Isis Pharmaceuticals, Inc., priority 2004, dated 2011) can be followed below.

The structures appear in SMILES notation. “And” between values parts separate entries of the source, which are not always exact repeats. Equal values may be shown once. Read-outs that look alike come from different tables or passages of the source.

Test [1] deals with E. Coli. The test can be described thus: MIC, E. Coli.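 Also: minimum inhibitory concentration determined in duplicate in 96-well plates, compounds given in 4% aqueous DMSO, with ampicillin and tetracycline as positive controls.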 As to conditions: 24 h. It counts as cell-based.
Protocol: (§1) The MIC assays are carried out in 150 μL volume in duplicate in 96-well clear flat-bottom plates. The bacterial suspension from an overnight culture growth in appropriate medium is added to a solution of test compound in 4% DMSO in water. Final bacterial inoculum is approximately 10^5-10^6 CFU/well. […] Both ampicillin and tetracycline are used as antibiotic-positive controls in each screening assay for S. pyogenes, E. coli imp-, E. coli, S. aureus, E. faecalis, K. pneumoniae and P. vulgaris. Ciprofloxacin is used as an antibiotic positive control in each screening assay for P. aeruginosa.
Test [2] deals with S. Aureus. Description: MIC, S. Aureus. It counts as cell-based. The settings on record: 24 h.
Protocol: as §1
Test [3] has as its target 16S ribosomal subunit RNA target. The test can be described thus: Mass spectrometry based binding assay (FTICR), 16S. As for the experimental part:
In a typical experiment, 10 μL of an aqueous solution containing 100 mM ammonium acetate buffer, 2.5 or 5 μM of each RNA, and 33% isopropyl alcohol (to aid ion desolvation) was prepared with different concentrations of each ligand or ligand mixture. Samples were introduced into the electrospray ionization source (negative ionization mode) at 1 μL/min and ions were stored for 1 sec in an RF-only hexapole following desolvation. The abundances were integrated from the respective ions for free RNA and the ligand-RNA complex. The primary (1:1 RNA:ligand) and secondary (1:2 complex, if observed). […] The peak ratios were measured at each concentration, then a plot of complex/free RNA versus concentration of ligand added was fitted to a second (or higher) order binding polynomial to determine the KD.

For test [4], the system named is E. coli S30 bacterial extract (pBestLuc luciferase reporter). The test can be described thus: Coupled bacterial transcription/translation assay. It is filed as biochemical. As to conditions: read-out: Trans/trans IC50. As for the experimental part: The DNA template, pBestLuc™ (Promega), is a plasmid containing a reporter gene for firefly luciferase fused to a strong tac promoter and ribosome binding site. Messenger RNA from 1 μg pBestLuc is transcribed and translated in E. coli S30 bacterial extract in the presence or absence of test compound. Compounds are tested in a black 96 well microtiter plate with an assay volume of 35 μL. […] The transcription/translation reaction is incubated for 35 minutes at 37° C. followed by detection of functional luciferase with the addition of 30 μL LucLite™ (Packard). Light output is quantitated on a Packard TopCount.

The test system of test [5] is S. aureus (ATCC 13709).
Protocol: Male ICR mice are fed with autoclaved commercial food pellets and sterile water ad libitum. Animals are inoculated intraperitoneally with 1.0×10^6 CFU/0.5 mL/mouse of S. aureus (ATCC 13709) containing 10% mucin. Ten animals each are randomly assigned to either control or treatment groups. Test compound and gentamycin (included as a positive control) are both administered subcutaneously one and 3 hour after infection. Test compound is administered as an aqueous buffer solution (phosphate buffered saline (PBS), pH=7.4). The data is presented as the number of mice out of the 10 in the group that were not protected from lethal infection.
The mark [6] stands for this setting: range between growth and complete inhibition.

Consider `NCCN(CCN)CCOC1C(OC2C(O)C(N)CC(N)C2OC2OC(CO)C(O)C(O)C2N)OC(CO)C1OC1OC(CN)C(O)C(O)C1N` (stereo not drawn) [IBIS00560172], for which the “MIC E. Coli.” value in test [1] (setting [6]) was over 50 µM. Further, the “MIC S. Aureus” value in test [2] (setting [6]) lay in the range of 25 to 50 µM.
The Kd is the equilibrium constant for the complex coming apart. Higher therefore signals weaker binding. As for `CN(C)CCOC1C(OC2C(O)C(N)CC(N)C2OC2OC(CO)C(O)C(O)C2N)OC(CO)C1OC1OC(CN)C(O)C(O)C1N` (stereo not drawn) [IBIS00560174], the Kd in test [3] came out at 930 nM. In addition, in test [4], the IC50 stood at 210 nM. Also, in test [1] (setting [6]), the “MIC E. Coli.” value was 12 to 52 µM. Also, in test [2] (setting [6]), the “MIC S. Aureus” value was in the range of 6 to 12 µM.
With `NCCCNCCOC1C(OC2C(O)C(N)CC(N)C2OC2OC(CO)C(O)C(O)C2N)OC(CO)C1OC1OC(CN)C(O)C(O)C1N` (stereo not drawn) [IBIS00560175], the IC50 in test [4] is 290 nM. The “MIC E. Coli.” value in test [1] (setting [6]) is 25 to 50 µM and 25 µM. The “MIC S. Aureus” value in test [2] (setting [6]) was 3 to 6 µM and 3 µM.
Turning to `NCCNCCOC1C(OC2C(O)C(N)CC(N)C2OC2OC(CO)C(O)C(O)C2N)OC(CO)C1OC1OC(CN)C(O)C(O)C1N` (stereo not drawn) [IBIS00560177], the IC50 in test [4] was 290 nM. Further, the “MIC E. Coli.” value in test [1] (setting [6]) is 6 µM and 6 to 12 µM. In test [2] (setting [6]), the “MIC S. Aureus” value was 2 µM and 2 to 3 µM.
The compound `NCC1OC(OC2C(CO)OC(OC3C(O)C(N)CC(N)C3OC3OC(CO)C(O)C(O)C3N)C2OCCNC2CCCNC2)C(N)C(O)C1O` (stereo not drawn) [IBIS00560725] returned a dissociation constant (Kd) in test [3] of 110 nM. The IC50 in test [4] was found to be 80 nM. In test [1] (setting [6]), the “MIC E. Coli.” value is listed as 1.5-3^ μM. Also, the “MIC S. Aureus” value in test [2] (setting [6]) was in the range of 3 to 6 µM.
Regarding `NCC1OC(OC2C(CO)OC(OC3C(O)C(N)CC(N)C3OC3OC(CO)C(O)C(O)C3N)C2OCCNCC2CCCNC2)C(N)C(O)C1O` (stereo not drawn) [IBIS00560726], in test [3], the Kd is 250 nM and 130 nM.
Take `NCC1OC(OC2C(CO)OC(OC3C(O)C(N)CC(N)C3OC3OC(CO)C(O)C(O)C3N)C2OCCNCc2nc3ccccc3[nH]2)C(N)C(O)C1O` (stereo not drawn) [IBIS00560797]: binding in test [3] was put at a Kd of 4100 nM. Also, the IC50 in test [4] is 340 nM. Further, the “MIC E. Coli.” value in test [1] (setting [6]) is 6 to 12 µM. Further, the “MIC S. Aureus” value in test [2] (setting [6]) fell in the range of 25 to 50 µM.
Regarding `NCC1OC(OC2C(CO)OC(OC3C(O)C(N)CC(N)C3OC3OC(CO)C(O)C(O)C3N)C2OCCNC2CCCCC2)C(N)C(O)C1O` (stereo not drawn) [IBIS00560931], the “MIC E. Coli.” value in test [1] is 3 to 6 µM. Also, the “MIC S. Aureus” value in test [2] was 3 to 5 µM.
As for `NCC1OC(OC2C(CO)OC(OC3C(O)C(N)CC(N)C3OC3OC(CO)C(O)C(O)C3N)C2OCCNc2ccccc2)C(N)C(O)C1O` (stereo not drawn) [IBIS00560932], the “MIC E. Coli.” value in test [1] was 50 to 100 µM. Besides, the “MIC S. Aureus” value in test [2] was 6 to 12 µM.
On the same counts, the results for `NCC1OC(OC2C(CO)OC(OC3C(O)C(N)CC(N)C3OC3OC(CO)C(O)C(O)C3N)C2OCCNCc2ccnc(N)c2)C(N)C(O)C1O` (stereo not drawn) [IBIS00560965] are 6 to 12 µM and 0.6-1^ μM.
On the same counts, the results for `NCC1OC(OC2C(CO)OC(OC3C(O)C(N)CC(N)C3OC3OC(CO)C(O)C(O)C3N)C2OCCNCCc2cccnc2)C(N)C(O)C1O` (stereo not drawn) [IBIS00560972] are 6 to 12 µM and 0.6-1^ μM.
Consider `NCC1OC(OC2C(CO)OC(OC3C(O)C(N)CC(N)C3OC3OC(CO)C(O)C(O)C3N)C2OCCNCCc2ccccc2)C(N)C(O)C1O` (stereo not drawn) [IBIS00560973], for which the “MIC E. Coli.” value in test [1] is 3 to 6 µM. The “MIC S. Aureus” value in test [2] is 0.3 to 0.6 µM. Further, the “number of mice out of the 10 in the group that were not protected from lethal infection” value in test [5] (0.1 mg/kg subcutaneously 1 and 3 hour after i.p. infection) was 5/10; in test [5] (0.5 mg/kg subcutaneously 1 and 3 hour after i.p. infection) it was 0/10; in test [5] (1 mg/kg subcutaneously 1 and 3 hour after i.p. infection), 0/10; in test [5] (2 mg/kg subcutaneously 1 and 3 hour after i.p. infection), 0/10; in test [5] (4.5 mg/kg subcutaneously 1 and 3 hour after i.p. infection), 0/10; in test [5] (9 mg/kg subcutaneously 1 and 3 hour after i.p. infection) it was 0/10. Further, the “number of mice out of the 10 in the group that were not protected from lethal infection” value in test [5] (18 mg/kg subcutaneously 1 and 3 hour after i.p. infection) is 0/10; in test [5] (37 mg/kg subcutaneously 1 and 3 hour after i.p. infection) it was 0/10; in test [5] (75 mg/kg subcutaneously 1 and 3 hour after i.p. infection), 0/10; in test [5] (mouse, in vivo), 1/10. In addition, the “prevention of lethal bacterial infection in mice (in words)” value in test [5] (S. aureus ATCC 13709 i.p., compound s.c.) is “effective at preventing lethal bacterial infections in mice”.
Take `NCC1OC(OC2C(CO)OC(OC3C(O)C(N)CC(N)C3OC3OC(CO)C(O)C(O)C3N)C2OCCNCc2ccccc2)C(N)C(O)C1O` (stereo not drawn) [IBIS00560974]: the “MIC E. Coli.” value in test [1] was in the range of 3 to 6 µM. Besides, in test [2], the “MIC S. Aureus” value lay within 3 to 5 µM.
Take `NCC1OC(OC2C(CO)OC(OC3C(O)C(N)CC(N)C3OC3OC(CO)C(O)C(O)C3N)C2OCCNCc2ccc(N)nc2)C(N)C(O)C1O` (stereo not drawn) [IBIS00560975]: in test [1], the “MIC E. Coli.” value was 3 to 6 µM. Besides, in test [2], the “MIC S. Aureus” value lay within 0.3 to 0.6 µM.
For `NCC1OC(OC2C(CO)OC(OC3C(O)C(N)CC(N)C3OC3OC(CO)C(O)C(O)C3N)C2OCCNc2ccccn2)C(N)C(O)C1O` (stereo not drawn) [IBIS00561109], the “MIC E. Coli.” value in test [1] fell in the range of 12 to 25 µM. In addition, the “MIC S. Aureus” value in test [2] was in the range of 1 to 2 µM.
In the case of `NCC1OC(OC2C(CO)OC(OC3C(O)C(N)CC(N)C3OC3OC(CO)C(O)C(O)C3N)C2OCCNCCCc2ccccc2)C(N)C(O)C1O` (stereo not drawn) [IBIS00561144], in test [1], the “MIC E. Coli.” value fell in the range of 3 to 5 µM. Moreover, in test [2], the “MIC S. Aureus” value lay in the range of 0.6 to 1.2 µM.
On the same counts, the results for `NCC1OC(OC2C(CO)OC(OC3C(O)C(N)CC(N)C3OC3OC(CO)C(O)C(O)C3N)C2OCCNCCCCc2ccccc2)C(N)C(O)C1O` (stereo not drawn) [IBIS00561145] are 3 to 5 µM and 0.6 to 1.2 µM.
Turning to `COc1cc(CCNCCOC2C(OC3C(O)C(N)CC(N)C3OC3OC(CO)C(O)C(O)C3N)OC(CO)C2OC2OC(CN)C(O)C(O)C2N)cc(OC)c1` (stereo not drawn) [IBIS00561192], the “MIC E. Coli.” value in test [1] fell in the range of 10 to 20 µM. Further, the “MIC S. Aureus” value in test [2] fell in the range of 5 to 10 µM.
Turning to `NCC1OC(OC2C(CO)OC(OC3C(O)C(N)CC(N)C3OC3OC(CO)C(O)C(O)C3N)C2OCCNCCc2ccc(-c3ccccc3)cc2)C(N)C(O)C1O` (stereo not drawn) [IBIS00561193], in test [1], the “MIC E. Coli.” value was in the range of 20 to 40 µM. Moreover, in test [2], the “MIC S. Aureus” value was in the range of 5 to 10 µM.
On the same counts, the results for `NCC1OC(OC2C(CO)OC(OC3C(O)C(N)CC(N)C3OC3OC(CO)C(O)C(O)C3N)C2OCCNC23CC4CC(CC(O)(C4)C2)C3)C(N)C(O)C1O` (stereo not drawn) [IBIS00561195] are 20 to 40 µM and 1 to 3 µM.
On the same counts, the results for `NCC1OC(OC2C(CO)OC(OC3C(O)C(N)CC(N)C3OC3OC(CO)C(O)C(O)C3N)C2OCCNC2CCCc3ccccc32)C(N)C(O)C1O` (stereo not drawn) [IBIS00561950] are over 10 µM and 1.25 to 2.5 µM.
On the same counts, the results for `NCC1OC(OC2C(CO)OC(OC3C(O)C(N)CC(N)C3OC3OC(CO)C(O)C(O)C3N)C2OCCNCCC2CC3CCC2C3)C(N)C(O)C1O` (stereo not drawn) [IBIS00561951] are over 10 µM and 5.0 to 10.0 µM.
In the case of `CC(C)CCCC(C)C1CCC2C3CCC4CC(NCCOC5C(OC6C(O)C(N)CC(N)C6OC6OC(CO)C(O)C(O)C6N)OC(CO)C5OC5OC(CN)C(O)C(O)C5N)CCC4(C)C3CCC12C` (stereo not drawn) [IBIS00561952], in test [1], the “MIC E. Coli.” value is over 10 µM. Besides, the “MIC S. Aureus” value in test [2] fell in the range of 2.5 to 5.0 µM.
Take `NCC1OC(OC2C(CO)OC(OC3C(O)C(N)CC(N)C3OC3OC(CO)C(O)C(O)C3N)C2OCCNCCc2cc(C(F)(F)F)cc(C(F)(F)F)c2)C(N)C(O)C1O` (stereo not drawn) [IBIS00561954]: in test [1], the “MIC E. Coli.” value was over 10 µM. Besides, in test [2], the “MIC S. Aureus” value fell in the range of 2.5 to 5.0 µM.
